For 18 compounds, IC50 results are on record in patent publication EP4782453A1 (Beyang Therapeutics Co., Ltd., priority 2023, dated 2025).

In one experiment the target is T1, Menin-MLL (Homo sapiens, UniProt O00255).
T1 construct: His-Menin (M1-L615 end); purchased BIORTUS BP9210
T1 sequence (O00255 1-615 isoform O00255-1): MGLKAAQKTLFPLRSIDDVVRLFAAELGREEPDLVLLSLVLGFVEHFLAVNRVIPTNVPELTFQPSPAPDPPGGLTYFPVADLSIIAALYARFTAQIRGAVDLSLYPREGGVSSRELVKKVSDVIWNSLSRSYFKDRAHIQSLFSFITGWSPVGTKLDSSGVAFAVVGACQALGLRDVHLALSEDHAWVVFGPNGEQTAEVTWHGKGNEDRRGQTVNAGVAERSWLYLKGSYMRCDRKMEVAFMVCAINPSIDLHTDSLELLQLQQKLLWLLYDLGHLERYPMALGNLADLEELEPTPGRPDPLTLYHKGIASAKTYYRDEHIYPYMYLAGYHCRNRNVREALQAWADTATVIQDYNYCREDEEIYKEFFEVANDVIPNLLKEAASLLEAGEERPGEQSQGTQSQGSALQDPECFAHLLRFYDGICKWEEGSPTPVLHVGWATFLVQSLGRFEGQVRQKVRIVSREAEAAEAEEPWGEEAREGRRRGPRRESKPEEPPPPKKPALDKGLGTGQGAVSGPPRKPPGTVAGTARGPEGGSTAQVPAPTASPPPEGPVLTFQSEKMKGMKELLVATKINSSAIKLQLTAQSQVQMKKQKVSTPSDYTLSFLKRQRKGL
The experiment is described as follows: Inhibitory activity against Menin-MLL binding (fluorescence polarization). The following applies: 150 nM His-Menin, 15 nM FITC-MLL, 25°C for 60 min. The method, boiled down: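 His-Menin (M1-L615, 150 nM) preincubated with compound 15 min at 25 °C in HEPES pH 7.5, 50 mM NaCl, 1 mM DTT, 0.01% BSA, then 15 nM FITC-MLL4-43 peptide added for 60 min at 25 °C. Fluorescence polarization read; IC50 from 4-parameter logistic fit, duplicates.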
Background: Fluorescence polarisation rises when a labelled molecule tumbles more slowly, as on binding a larger partner.

Experiment [1] relates to MOLM-13 (carrying MLL-AF9). The experiment is described as follows: Inhibition of proliferation of human tumor cells (Alamar Blue, 7 days), MOLM-13. The following applies: Homo sapiens, MOLM-13 cells (carrying MLL-AF9), method calls the value GI50. It counts as cell-based. The source says: Experimental Example 2: Evaluation of Inhibitory Activity of Compounds Against Proliferation of Human Tumor Cells
• Human acute lymphoblastic leukemia cells MV-4-11, purchased from American Type Culture Collection, Catalog Number: CRL-9591; • Human acute myeloid leukemia cells MOLM-13, purchased from COBIOER BIOSCIENCES CO., LTD, Catalog Number: CBP60678; • Human acute myeloid leukemia cells KG-1a, purchased from American Type Culture Collection, Catalog Number: CCL-246.1; • Inverted Microscope, purchased from Olympus Tokyo; • Countess™ Automated Cell Counter, purchased from Invitrogen, Model: C10281; and • Multilabel Reader, purchased from Bio-Tek, Model: Synergy HT.
MV-4-11 cells were cultured in an IMDM medium containing 10% fetal bovine serum, KG-a cells were cultured in an IMDM medium containing 20% fetal bovine serum, or MOLM-13 cells were cultured in an RPMI-1640 medium containing 20% fetal bovine serum, each supplemented with 100 U·mL^-1 penicillin and 100 µg·mL^-1 streptomycin. These cells were cultured at 37°C with 5% CO2. The suspensions of individual cell lines were prepared in their respective media and seeded into 96-well plates at a density of 4,000 cells/well for MV-4-11 and MOLM-13 cells, or 3,000 cells/well for KG-1a cells. On the day of the experiment, a compound stock solution was diluted in a 3-fold or 4-fold gradient using DMSO. Each gradient-diluted stock solution was then further diluted 250-fold with a complete medium to prepare a series of working solutions at different concentrations. Subsequently, 100 µL of working solution (containing a 2-fold concentration series of the test compound) was added to each well, with duplicate wells set up for each concentration.
Seven days after compound addition (on Day 7), an Alamar Blue assay reagent (MCE, HY-111391 / CS-0040317) was added to measure the fluorescence intensity in each well. Wells containing the cells in the growth medium supplemented with 0.1% DMSO (Day 7) served as high-read control wells. The readouts from the wells containing the cells in the growth medium supplemented with 0.1% DMSO on the day of compound addition (Day 0) served as low-reading control well. GraphPad Prism software was used to calculate the concentration required to inhibit 50% of cell proliferation (GI50), which serves as a cell proliferation inhibition activity index.
In general terms: The colour change of resazurin is a common sign of viable cells or microbes.

[2] abbreviates: fluorescence polarization, read-out: Menin-MLL IC50.
[3] abbreviates: Menin-MLL IC50, fluorescence polarization.

Read-outs that look alike come from different tables or passages of the source.

`CCN(C(=O)c1cc(F)ccc1-c1cc(C2CN([C@H](CCCN3CCOC[C@@H]3CO)C(C)C)C2)cn2c(C)ncc12)C(C)C` [Example 452]: the IC50 on Menin-MLL (setting [2]) amounted to 5.3 nM; in experiment [1] (168 h), 39 nM.
With `CCN(C(=O)c1cc(F)ccc1-c1cc(C2CN([C@H](CCCN3CCOC[C@H]3CO)C(C)C)C2)cn2c(C)ncc12)C(C)C` [Example 453], the values for the concentration for half-maximal inhibition (IC50) (on Menin-MLL (setting [2]); in experiment [1] (168 h)) were 5.3 nM and 22 nM, respectively.
For `CCN(C(=O)c1cc(F)ccc1-c1cc(C2CN(C(CCO)C(C)C)C2)cn2c(C)ncc12)C(C)C` (stereo not drawn) [Example 455, N-ethyl-5-fluoro-2-{6-[1-(1-hydroxyl-4-methylpentan-3-yl)azacyclobutan-3-yl]-3-methylimidazo[1,5-a]pyridin-8-yl}-N-(isopropyl)benzamide], in that order: 9.4 nM and 69 nM.
For the compound `CCN(C(=O)c1cc(F)ccc1-c1cc(C2CN([C@H](CC[C@H]3COCCN3)C(C)C)C2)cn2c(C)ncc12)C(C)C` [Example 457-2, N-ethyl-5-fluoro-2-(3-methyl-6-{1-[(3R)-4-methyl-1-[(3S)-morpholin-3-yl]pentan-3-yl]azacyclobutan-3-yl}imidazo[1,5-a]pyridin-8-yl)-N-(isopropyl)benzamide], the values for the concentration for half-maximal inhibition (IC50) (on Menin-MLL (setting [2]); in experiment [1] (168 h)) were 2.6 nM and 5 nM, respectively.
For the compound `CCN(C(=O)c1cc(F)ccc1-c1cc(C2CN(C(CC[C@@H]3COCCN3)C(C)C)C2)cc2c1cnn2C)C(C)C` (stereo partly drawn) [Example 458, N-ethyl-5-fluoro-2-[1-methyl-6-(1-{4-methyl-1-[(3R)-morpholin-3-yl]pentan-3-yl}azacyclobutan-3-yl}-1H-indazol-4-yl)-N-(isopropyl)benzamide], the half-inhibitory concentration (IC50) on Menin-MLL (setting [2]) was determined as 6.4 nM; in experiment [1] (168 h), 31 nM.
Regarding `Cc1ncc2c(-c3ccc(F)cc3C(=O)N(CC(F)F)C(C)C)cc(C3CN([C@H](CCCN4CCN(CCO)CC4)C(C)C)C3)cn12` [Example 459-1, N-(2,2-difluoroethyl)-5-fluoro-2-(6-{1-[(3R)-6-[4-(2-hydroxylethyl)piperazin-1-yl]-2-methylhexan-3-yl]azacyclobutan-3-yl}-3-methyl-imidazo[1,5-a]pyridin-8-yl)-N-(isopropyl)benzamide], the concentration for half-maximal inhibition (IC50) on Menin-MLL (setting [2]) came out at 1.9 nM; in experiment [1] (168 h) it was 4.7 nM.
As to `Cc1ncc2c(-c3ccc(F)cc3C(=O)N(C(C)C)C(C)C)cc(C3CN([C@H](CCCN4CCN(CCO)CC4)C(C)C)C3)cn12` [Example 463, 5-fluoro-2-(6-{1-[(3R)-6-[4-(2-hydroxylethyl)piperazin-1-yl]-2-methylhexan-3-yl]azacyclobutan-3-yl}-3-methyl-imidazo[1,5-a]pyridin-8-yl)-N,N-di(isopropyl)benzamide], the IC50 is 2.3 nM on Menin-MLL (setting [2]) and 4.3 nM in experiment [1] (168 h).
With `COCCN(C(=O)c1cc(F)ccc1-c1cc(C2CN([C@H](CCCN3C[C@H]4C[C@@H]3CO4)C(C)C)C2)cn2c(C)ncc12)C(C)C` [Example 467-1, 5-fluoro-N-(2-methoxyethyl)-2-(3-methyl-6-{1-[(3R)-2-methyl-6-[(1R,4R)-2-oxa-5-azadicyclo[2.2.1]heptan-5-yl]hexan-3-yl]azacyclobutan-3-yl}imidazo[1,5-a]pyridin-8-yl)-N-(isopropyl)benzamide], the IC50 worked out at 1.5 nM on Menin-MLL (setting [3]) and 23 nM in experiment [1] (MOLM-13, 168 h).
As for `CCN(C(=O)c1cc(F)ccc1-c1cc(CC2CN([C@H](CCCN3CCN(CCO)CC3)C(C)C)C2)n2c(C)cncc12)C(C)C` [Example 470, N-ethyl-5-fluoro-2-[6-({1-[(3R)-6-[4-(2-hydroxylethyl)piperazin-1-yl]-2-methylhexan-3-yl]azacyclobutan-3-yl}methyl)-4-methylpyrrolo[1,2-a]pyrazin-8-yl]-N-(isopropyl)benzamide], the IC50 was found to be 0.9 nM at Menin-MLL (setting [2]) and 3.8 nM in experiment [1] (168 h).
Regarding `CCN(C(=O)c1cc(F)ccc1-c1cc(C2CN([C@H](CCCN3CCNCC3)C(C)C)C2)cn2c(C)ncc12)C(C)C` [Example 472], the values for the half-inhibitory concentration (IC50) (at Menin-MLL (setting [2]); in experiment [1] (168 h)) were 1.5 nM and 24 nM, respectively.
As to `CCN(C(=O)c1cc(F)ccc1-c1cc(C2CN([C@H](CCCN3CCN(CC(=O)N(C)C)CC3)C(C)C)C2)cn2c(C)ncc12)C(C)C` [Example 473], the IC50 was determined as 1.1 nM at Menin-MLL (setting [2]) and 16 nM in experiment [1] (168 h).
Take `CCN(C(=O)c1cc(F)ccc1-c1cc(C2CN([C@H](CCCN3CCN(C4(CO)COC4)CC3)C(C)C)C2)cn2c(C)ncc12)C(C)C` [Example 474, N-ethyl-5-fluoro-2-(6-{1-[(3R)-6-{4-[3-(hydroxymethyl)oxacyclobutan-3-yl]piperazin-1-yl}-2-methylhexan-3-yl]azacyclobutan-3yl}-3-methylimidazo[1,5-a]pyridin-8-yl)-N-(isopropyl)benzamide]: the IC50 at Menin-MLL (setting [3]) worked out at 0.9 nM; in experiment [1] (MOLM-13, 168 h), 11 nM.
In the case of `CCN(C(=O)c1cc(F)ccc1-c1cc(C2CN([C@H](CCCN3CCN(C4(C(N)=O)COC4)CC3)C(C)C)C2)cn2c(C)ncc12)C(C)C` [Example 475, 3-{4-[(4R)-4-[3-(8-{2-[ethyl(isopropyl)aminoformyl]-4-fluorophenyl}-3-methylimidazo[1,5-a]pyridin-6-yl)azacyclobutan-1-yl]-5-methylhexyl]piperazin-1-yl}oxacyclobutan-3-formamide], the half-inhibitory concentration (IC50) at Menin-MLL (setting [2]) is 1 nM; in experiment [1] (168 h), 25 nM.
Regarding `Cc1cncc2c(-c3ccc(F)cc3C(=O)N(C)C(C)C)cc(CC3CN([C@H](CCCN4CCN(CCO)CC4)C(C)C)C3)n12` [Example 477-1, 5-fluoro-2-[6-({1-[(3R)-6-[4-(2-hydroxylethyl)piperazin-1-yl]-2-methylhexan-3-yl]azacyclobutan-3-yl}methyl)-4-methylpyrrolo[1,2-a]pyrazin-8-yl]-N-methyl-N-(isopropyl)benzamide], the IC50 at Menin-MLL (setting [2]) came to 1.1 nM; in experiment [1] (168 h) it was 10 nM.
In the case of `CCN(C(=O)c1cc(F)ccc1-c1cc(C2CN([C@H](CCCN3CCC(C#N)(CO)CC3)C(C)C)C2)cn2c(C)ncc12)C(C)C` [Example 481], the 50% inhibitory concentration (IC50) turned out to be 1.9 nM on Menin-MLL (setting [3]) and 5.5 nM in experiment [1] (MOLM-13, 168 h).
Consider `CCN(C(=O)c1cc(F)ccc1-c1cc(C2CN([C@H](CCCN3CCN(CCO)CC34COC4)C(C)C)C2)cn2c(C)ncc12)C(C)C` [Example 482, N-ethyl-5-fluoro-2-(6-{1-[(3R)-6-[8-(2-hydroxyethyl)-2-oxa-5,8-diazaspiro[3.5]non-5-yl]-2-methylhexan-3-yl]azacyclobutan-3-yl}-3-methylimidazo[1,5-a]pyridin-8-yl)-N-(isopropyl)benzamide], for which the IC50 on Menin-MLL (setting [2]) came out at 2.4 nM; in experiment [1] (168 h) it was 36 nM.
In the case of `CCN(C(=O)c1cc(F)ccc1-c1cc(OC2CN(C(CCCN3CCN(CCO)CC3)C(C)C)C2)n2c(C)cncc12)C(C)C` (stereo not drawn) [Example 488, N-ethyl-5-fluoro-2-{6-[(1-{6-[4-(2-hydroxyethyl)piperazin-1-yl]-2-methylhexan-3-yl}azacyclobutan-3-yl)oxy]-4-methylpyrrolo[1,2-a]pyrazin-8-yl}-N-(isopropyl)benzamide], the IC50 came to 3.4 nM at Menin-MLL (setting [2]) and 19 nM in experiment [1] (168 h).
For `CCN(C(=O)c1cc(F)ccc1-c1cc(C2CN([C@H](CCCN3CCN(CCC#N)CC3)C(C)C)C2)cn2c(C)ncc12)C(C)C` [Example 489], in that order: 2 nM and 5.9 nM.

A word on the IC50: it is the concentration that gives 50% inhibition.
